Reference: patent US6376670B1, “Quinoline-indole antimicrobial agents, uses and compositions related thereto” (Sepracor Inc., priority 1997, dated 2002)
Values after ≈ are worked out from the molar mass of the structure shown. Like-named read-outs stand apart in the source and are kept apart here.

Tests used:
Assay in all cases: Determination of MIC values (BHI broth, 96 well microtiter plate)
Type in all cases: cell-based
[1] = test system: vancomycin-resistant Enterococcus spp. (VRE); conditions: Enterococcus, VRE, BHI broth, read-out: MIC VREF
Outline: (§1)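 Here, each test series spans final concentrations of 25 to 0.39 µg/mL in BHI broth, with DMSO as diluent. Plates seeded at 10^5–10^6 cells/mL are kept at 37° C and approx. 7-10% CO2 for about 16 hours before growth is scored.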

[2] = test system: methicillin-resistant Staphylococcus aureus (MRSA); conditions: MRSA, BHI broth; for MIC: Staphylococcus aureus, read-out: MIC MRSA
Outline: as §1

Streptococcus pneumoniae = conditions: BHI broth; for MIC: Streptococcus pneumoniae, read-out: MIC S. pneu
Outline: as §1

[3] = 16 h, 37° C., overnight (about 16 hours)
[4] = 37° C., overnight (about 16 hours)

SMILES	MIC ([1]; VREF, overnight 37° C.) [µg/mL]	MIC ([2]; overnight 37° C.) [µg/mL]	MIC (Streptococcus pneumoniae; S. pneu, overnight 37° C.) [µg/mL]	MIC ([1]; 16 h, 37° C., about 16 hours) [µg/mL]	MIC ([2]; 16 h, 37° C., about 16 hours) [µg/mL]	MIC (Streptococcus pneumoniae; 37° C., about 16 hours) [µg/mL]	other results
NCc1ccc(CNC(=O)c2cc(-c3c[nH]c4ccc(Br)cc34)nc3c(Cl)c(Cl)ccc23)cc1 [Example 275]	< 7	< 7	< 25	–	–	–	–
Clc1ccc2nc(-c3c[nH]c4ccc(OCc5ccccc5)cc34)ccc2c1 [Example 289]	> 25	< 7	< 7	–	–	–	–
NCc1cc(-c2c[nH]c3ccc(Br)cc23)nc2cc(F)ccc12 [Example 509]	–	–	–	< 7	< 7	< 7	–
Cn1cc(-c2cc(C(=O)NCc3ccc(CN)cc3)c3cc(C#CCNCCc4ccccc4)ccc3n2)c2cc(Br)ccc21 [Example 389]	< 7	< 7	< 25	–	–	–	–
Cn1cc(-c2cc(C(=O)NCCN)c3cc(C#CCN4CCc5ccccc5C4)ccc3n2)c2cc(Br)ccc21 [Example 404]	–	–	–	< 7	< 7	< 7	–
NCC1CCC(CNC(=O)c2cc(-c3c[nH]c4ccc(Br)cc34)nc3cc(Cl)c(I)cc23)CC1 (stereo not drawn) [Example 244]	< 7	< 7	< 7	–	–	–	–
COC(=O)c1cc(-c2c[nH]c3ccc(Br)cc23)nc2cc(F)ccc12 [Example 486]	–	–	–	< 7	< 7	< 7	–
NCc1ccc(CNC(=O)c2cc(-c3c[nH]c4ccc(Br)cc34)nc3cc(C#CCN4CCCCC4)ccc23)cc1 [Example 262]	< 7	< 7	< 7	–	–	–	–
Clc1ccc2c(Cl)cc(-c3c[nH]c4ccc(Br)cc34)nc2c1 [Example 460]	–	–	–	< 7	< 7	< 7	–
NCC1CCC(CNC(=O)c2cc(-c3c[nH]c4ccc(Br)cc34)nc3ccc(Cl)cc23)CC1 (stereo not drawn) [Example 133]	–	–	–	–	–	–	MIC [1, 3]: < 7 µg/mL; MIC [2, 3]: < 7 µg/mL; MIC (Streptococcus pneumoniae; [4]): < 7 µg/mL
CC(C)N(CC#Cc1ccc2nc(-c3cn(C)c4ccc(Br)cc34)cc(C(=O)NCc3ccc(CN)cc3)c2c1)C(C)C [Example 398]	< 7	< 7	< 7	–	–	–	–
OCc1cc(-c2c[nH]c3ccc(Br)cc23)nc2cc(Br)ccc12 [Example 335]	< 7	< 7	< 7	–	–	–	–
Cc1[nH]c2ccc(Cl)cc2c1-c1cc(Cl)c2ccccc2n1 [Example 465]	–	–	–	< 25	< 7	< 7	–
COc1ccc2nc(-c3c[nH]c4cc(Cl)ccc34)ccc2c1 [Example 414]	–	–	–	> 25	> 25	> 25	–
CC(C)CNC(=O)c1cc(-c2c[nH]c3ccc(Br)cc23)nc2ccc(C#CCN3CCCCC3)cc12 [Example 519]	–	–	–	> 25	< 7	< 7	–
Cc1cc2nc(-c3c[nH]c4ccc(Br)cc34)cc(C(=O)NCC3CCC(CN)CC3)c2cc1C (stereo not drawn) [Example 128]	–	–	–	–	–	–	MIC [1, 3]: < 7 µg/mL; MIC [2, 3]: < 7 µg/mL; MIC (Streptococcus pneumoniae; [4]): < 7 µg/mL
NCc1ccc(CNC(=O)c2cc(-c3c[nH]c4ccc(Br)cc34)nc3ccc(F)cc23)cc1 [Example 253]	< 25	< 7	< 7	–	–	–	–
N#Cc1ccc2[nH]cc(-c3ccc4cc(Cl)ccc4n3)c2c1 [Example 200]	> 25	–	> 25	–	–	–	MIC MRSA ([2]; overnight 37° C.): < 7 µg/mL
Clc1ccc2nc(-c3c[nH]c4ccc(Cl)cc34)ccc2c1 [Example 484]	–	–	–	> 25	< 7	–	MIC S. pneu (Streptococcus pneumoniae; 37° C., about 16 hours): < 7 µg/mL
Clc1cc(-c2c[nH]c3cccc(Cl)c23)nc2ccccc12 [Example 341]	< 7	< 7	< 7	–	–	–	–
NCc1ccc(CNC(=O)c2cc(-c3c[nH]c4ccc(Br)cc34)nc3c(C#CCN4CCSCC4)cccc23)cc1 [Example 271]	< 25	< 7	< 7	–	–	–	–
OCc1cc(-c2c[nH]c3ccc(Br)cc23)nc2c(Br)cccc12 [Example 458]	–	–	–	< 7	< 7	< 7	–
COc1ccc(NC(=O)NCc2cc(-c3c[nH]c4ccc(Br)cc34)nc3cc(Cl)ccc23)cc1 [Example 514]	–	–	–	> 25	< 7	< 7	–
NCc1ccc(CNC(=O)c2cc(-c3c[nH]c4c(Br)cccc34)nc3ccccc23)cc1 [Example 261]	< 25	< 25	< 25	–	–	–	–
Clc1ccc2c(Cl)cc(-c3c[nH]c4cc(Cl)ccc34)nc2c1 [Example 463]	–	–	–	> 25	25 (≈ 71.9 µM)	25 (≈ 71.9 µM)	–
NCc1ccc(CNC(=O)c2cc(-c3c[nH]c4ccc(Br)cc34)nc3c(Cl)cccc23)cc1 [Example 143]	–	–	–	–	–	–	MIC [1, 3]: < 7 µg/mL; MIC [2, 3]: < 7 µg/mL; MIC (Streptococcus pneumoniae; [4]): < 7 µg/mL
